Data reported in paper PMC4339887, “Selective Sirt2 inhibition by ligand-induced rearrangement of the active site” (Nature Communications, 2015).
Entries after “also recorded” stand apart in the source; their conditions may differ.

How the values were obtained:
HeLa cells = assay: cell cycle analysis, propidium iodide flow cytometry; type: cell-based; conditions: treated as for BubR1
Description: (§1) reader (BMG Polarstar, Oex 390 nm, Oem 460 nm). The amount of inhibition was determined with respect to the mixture with only DMSO.
Immunocytochemistry equipment and settings. The signal of Alexa 546 and DAPI of the same region were acquired with constant illumination parameters as grayscale 8-bit 600 dpi tiff files (1600u 1200 pixels). Alexa 546 was acquired after 639.1 ms with a gamma factor of 0.65 without multiplying. The gain was set to 1. DAPI-stained images were acquired after about 20 ms with the same parameters as the one for Alexa 546 image acquisition. The temperature in the microscope room was kept at RT. Representative regions of each samples were processed with Adobe Photoshop CS2 to generate images in RGB mode by copying the appropriate original greyscale images to the blue (nuclei, DAPI) and the red (acetylated D-tubulin signal, Alexa 546) channel, respectively. As adjustment, a minimal background subtraction was applied on all images during processing in the same manner. The resolution was changed from 600 dpi (source images) to 450 dpi without resampling (Fig. 7 of the main article). LUT (CLUT) of grayscale images of the acetylated D-tubulin signal and of the DAPI signal are shown in Supplementary Fig. 8.
Cell Cycle Analysis. […] Stained cells were subjected to flow cytometric analysis using a FACSCaliber (BD Biosciences) and analyzed by FlowJo software (Tree Star, Inc.).

Human Sirt2_56–356 = biological target: T1, Human Sirt2_56–356 (Homo sapiens, UniProt Q8IXJ6); assay: competition analyses / inhibition kinetics, α-tubulin peptide, HPLC; type: biochemical; conditions: NAD+ competition analysis
T1 construct: Human Sirt2_56–356 (0.2 mg ml^−1 final concentration); His10 (N, cleaved yes); made in house; host or cells: E. coli BL21(DE3)Codonplus RIPL
T1 sequence (Q8IXJ6 56-356): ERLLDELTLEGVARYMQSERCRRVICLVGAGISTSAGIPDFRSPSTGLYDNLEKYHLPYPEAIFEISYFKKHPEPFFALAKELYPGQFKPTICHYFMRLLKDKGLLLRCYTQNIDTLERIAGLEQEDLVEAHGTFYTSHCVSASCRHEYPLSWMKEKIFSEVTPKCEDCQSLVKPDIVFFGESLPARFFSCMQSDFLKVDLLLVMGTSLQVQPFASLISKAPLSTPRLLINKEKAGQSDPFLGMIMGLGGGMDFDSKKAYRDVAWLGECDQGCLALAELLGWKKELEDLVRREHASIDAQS
From the text: The peak areas were integrated and converted to initial velocities calculated from the peak areas as the fraction of deacetylated peptide from total peptide.

KDAC6 = biological target: T2, KDAC6 (Homo sapiens, UniProt Q9UBN7); assay: in vitro KDAC1/6 assay, substrate ZMAL; type: biochemical
T2 construct: purchased Enzo Life Sciences
T2 sequence (Q9UBN7 1-1215): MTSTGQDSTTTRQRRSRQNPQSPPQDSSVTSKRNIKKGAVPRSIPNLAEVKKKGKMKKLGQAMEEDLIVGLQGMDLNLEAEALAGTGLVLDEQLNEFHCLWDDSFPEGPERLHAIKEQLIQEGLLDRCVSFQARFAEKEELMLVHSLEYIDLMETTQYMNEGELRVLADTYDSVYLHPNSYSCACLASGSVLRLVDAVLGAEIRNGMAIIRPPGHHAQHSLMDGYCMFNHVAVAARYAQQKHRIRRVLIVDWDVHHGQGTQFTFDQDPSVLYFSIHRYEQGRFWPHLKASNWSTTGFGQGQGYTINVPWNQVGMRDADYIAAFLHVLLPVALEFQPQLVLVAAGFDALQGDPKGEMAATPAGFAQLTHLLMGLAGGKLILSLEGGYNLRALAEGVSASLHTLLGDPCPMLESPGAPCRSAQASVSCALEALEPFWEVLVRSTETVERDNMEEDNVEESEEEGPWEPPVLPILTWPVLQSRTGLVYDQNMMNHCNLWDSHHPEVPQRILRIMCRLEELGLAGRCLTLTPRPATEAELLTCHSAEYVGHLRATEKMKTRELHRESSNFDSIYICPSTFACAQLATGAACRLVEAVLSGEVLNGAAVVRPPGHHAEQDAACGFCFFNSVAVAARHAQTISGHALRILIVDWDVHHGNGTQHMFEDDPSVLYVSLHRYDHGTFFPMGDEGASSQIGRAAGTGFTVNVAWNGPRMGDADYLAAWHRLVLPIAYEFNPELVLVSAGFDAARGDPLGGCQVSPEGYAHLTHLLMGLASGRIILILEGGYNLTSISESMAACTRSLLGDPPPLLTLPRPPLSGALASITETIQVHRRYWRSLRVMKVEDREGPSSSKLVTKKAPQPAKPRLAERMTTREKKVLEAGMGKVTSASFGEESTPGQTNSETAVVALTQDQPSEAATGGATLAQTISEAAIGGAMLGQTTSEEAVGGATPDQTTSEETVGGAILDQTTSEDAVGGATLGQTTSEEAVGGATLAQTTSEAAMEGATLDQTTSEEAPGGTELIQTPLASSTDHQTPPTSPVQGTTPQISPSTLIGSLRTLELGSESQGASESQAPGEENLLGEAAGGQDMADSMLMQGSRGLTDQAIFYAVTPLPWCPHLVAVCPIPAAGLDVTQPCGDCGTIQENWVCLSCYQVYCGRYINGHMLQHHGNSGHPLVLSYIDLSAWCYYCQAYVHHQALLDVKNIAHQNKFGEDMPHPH
Description: 5 times), Fmoc deprotection and amino acid coupling were repeated until the last amino acid was coupled and the Fmoc group was removed. The resin was washed with dichloromethane (DCM, 3 min, 5 times), methanol (5 min, 3 times) and DCM (3 min, 5 times). […]
acid (TFA) at RT (1 h, 2 times). Cleaved peptide was precipitated with cold diethylether, filtrated and dried. The peptide was purified by semi-preparative HPLC (Merck-Hitachi High Speed LC system) using a Merck Hibar LiChrosorb RP-8 column (250–25 mm, 7 μm). For separation a linear gradient from 20–50% (vol/vol) acetonitrile (ACN) with 0.1% (vol/vol) TFA in 60 min was applied (flow-rate: 8 ml min-1). […]
high-throughput fluorescence-based assay using the substrate ZMAL (Z-Lys(Acetyl)- […]
A solution that contained DMSO was used a negative
The reaction was started through the addition of KDAC1 (Enzo Life Sciences, 10 μL) or […]
initial state conditions the substrate conversion was adjusted to 10–30% prior to inhibition tests. The reaction was stopped by the addition of a solution containing trypsin and TSA […]
Then fluorescence intensity of the released fluorophore of the deacetylated lysine derivative was measured in a microplate […]
as §1
Immunocytochemistry equipment and settings. […]

## Cc1cc(C)nc(SCC(=O)Nc2ncc(Cc3cccc4ccccc34)s2)n1 [SirReal2]
HeLa cells
  cell cycle distribution: did not alter
Human Sirt2_56–356
  mode of inhibition towards NAD+: partially non-competitive
KDAC6
  activity of KDAC6: does not affect; also recorded: not affected
